We go through 72 compounds from US20090023773A1, “COMPOSITIONS AND METHODS FOR MODULATING GATED ION CHANNELS” (PainCeptor Pharma Corporation, priority 2007, published 2009).

The target in one assay is T1, recombinant homomeric hASIC1a channels (Homo sapiens, UniProt P78348).
T1 construct: expressed in transfected cells; host or cells: Xenopus laevis oocytes (nuclear microinjection of expression vector such as pcDNA3)
T1 sequence (P78348 1-528): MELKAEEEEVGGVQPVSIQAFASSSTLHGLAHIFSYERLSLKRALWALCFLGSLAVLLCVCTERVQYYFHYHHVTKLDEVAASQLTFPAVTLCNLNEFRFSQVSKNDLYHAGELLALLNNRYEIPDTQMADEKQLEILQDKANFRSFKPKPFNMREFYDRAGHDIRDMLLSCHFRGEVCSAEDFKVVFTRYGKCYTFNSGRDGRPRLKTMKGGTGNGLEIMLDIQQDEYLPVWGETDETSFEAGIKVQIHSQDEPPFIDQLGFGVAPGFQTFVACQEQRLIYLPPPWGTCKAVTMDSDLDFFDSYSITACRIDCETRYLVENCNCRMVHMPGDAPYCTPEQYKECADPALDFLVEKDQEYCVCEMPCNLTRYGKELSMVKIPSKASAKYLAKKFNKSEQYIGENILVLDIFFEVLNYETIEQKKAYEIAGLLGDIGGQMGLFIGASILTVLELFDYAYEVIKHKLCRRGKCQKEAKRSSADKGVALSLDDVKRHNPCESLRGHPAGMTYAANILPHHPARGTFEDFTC
The experiment in a line: Two-electrode voltage clamp in Xenopus laevis oocytes expressing gated ion channels (Example 4). It is filed as cell-based. The settings on record: Table 1; generated using oocytes as in Example 4.
`Cc1cc(OC2CCN(Cc3cccc(O)c3)CC2)c2ccccc2n1` [Compound 22]: the IC50 was 0.1 to 10 µM.

`Cc1cc(OC2CCN(Cc3cccnc3C(=O)O)CC2)c2cccc(F)c2n1` [Compound 25]: the 50% inhibitory concentration (IC50) is above 30 µM.

For the compound `Cc1nc(OC2CCN(Cc3ccccc3C#N)CC2)c2ccccc2n1` [Compound 9], the IC50 is above 30 µM.

`C=CCOC(=O)N1CCC(Oc2nc(C)nc3ccccc23)CC1` [Compound 10]: the IC50 is 0.1 to 10 µM.

On to `Cc1cc(OC2CC(C)(C)N(Cc3ccccc3)C(C)(C)C2)c2ccccc2n1` [Compound 4], for which the IC50 is above 30 µM.

Turning to `Cc1cc(OC2CCN(Cc3ccccc3C(=O)O)CC2)c2cc(O)ccc2n1` [Compound 24], the IC50 was above 30 µM.

Consider `Cc1cc(OC2CCN(Cc3cccnc3)CC2)c2cccc(F)c2n1` [Compound 3], for which the IC50 is 0.1 to 10 µM.

As for `Cc1nc(OC2CCN(Cc3ccccc3F)CC2)c2ccccc2n1` [Compound 8], the IC50 is above 30 µM.

Take `Cc1cc(OC2CCN(C(C)c3ccccc3C(=O)O)CC2)c2cccc(F)c2n1` (stereo not drawn) [Compound 15]: the IC50 was in the range of 0.1 to 10 µM.

Turning to `Cc1cc(OC2CCN(Cc3ccccc3F)C(C)C2)c2ccccc2n1` (stereo not drawn) [Compound 5], the half-maximal inhibitory concentration (IC50) was 0.1 to 10 µM.

`Cc1nc(OC2CCN(Cc3ccccc3)CC2)c2ccccc2n1` [Compound 7]: the IC50 fell in the range of 10.1 to 20 µM.

Regarding `Cc1cc(OC2CCN(Cc3ccccc3C#N)CC2)c2cccc(F)c2n1` [Compound 17], the IC50 lay within 0.1 to 10 µM.

As for `Cc1cc(OC2CCN(Cc3ccccc3)CC2)c2cccc(O)c2n1` [Compound 21], the IC50 is above 30 µM.

Take `COc1cccc(CN2CCC(Oc3cc(C)nc4ccccc34)CC2)c1` [Compound 14]: the 50% inhibitory concentration (IC50) fell in the range of 0.1 to 10 µM.

With `Cc1cc(OC2CCN(Cc3ccccc3F)CC2)c2cccc(F)c2n1` [Compound 2], the half-maximal inhibitory concentration (IC50) fell in the range of 0.1 to 10 µM.

On to `COc1cccc2c(OC3CCN(Cc4ccccc4)CC3)cc(C)nc12` [Compound 11], for which the half-inhibitory concentration (IC50) lay within 0.1 to 10 µM.

For `Cc1cc(O[C@H]2CCCN(Cc3ccccc3)C2)c2ccccc2n1` [Compound 20], the 50% inhibitory concentration (IC50) is above 30 µM.

The same assay, now with this note: Table 2; generated using oocytes as in Example 4.
Regarding `c1ccc(CN2CCC(Oc3nccc4ccccc34)CC2)cc1` [Compound 83], the 50% inhibitory concentration (IC50) was above 30 µM.

For the compound `Cc1cc(OC2CCN(C(C)c3ccccc3)CC2)c2ccccc2n1` (stereo not drawn) [Compound 38], the concentration for half-maximal inhibition (IC50) lay within 0.1 to 10 µM.

With `Cc1cc(OC2CCN(Cc3ccccc3)CC2)c2cc(F)ccc2n1` [Compound 29], the concentration for half-maximal inhibition (IC50) lay in the range of 0.1 to 10 µM.

On to `Cc1cc(OC2CCN(Cc3ccccc3-c3nnn[nH]3)CC2)c2cc(O)ccc2n1` [Compound 56], for which the IC50 fell in the range of 0.1 to 10 µM.

Turning to `Cc1cc(OC2CCN(Cc3cccc(OCc4ccccc4)c3)CC2)c2ccccc2n1` [Compound 85], the concentration for half-maximal inhibition (IC50) was above 30 µM.

Regarding `COc1ncccc1CN1CCC(Oc2cc(C)nc3c(F)cccc23)CC1` [Compound 71], the IC50 fell in the range of 0.1 to 10 µM.

In the case of `Cc1cc(OC2CCN(Cc3ccccc3)CC2)c2cc(C#N)ccc2n1` [Compound 46], the concentration for half-maximal inhibition (IC50) was in the range of 20.1 to 30 µM.

In the case of `Cc1cc(OC2CCN(Cc3ccccc3)C3CCCCC23)c2cccc(F)c2n1` (stereo not drawn) [Compound 74], the half-maximal inhibitory concentration (IC50) lay in the range of 0.1 to 10 µM.

As to `Cc1cc(OC2CCN(Cc3cccc(F)c3)CC2)c2ccccc2n1` [Compound 27], the IC50 was 0.1 to 10 µM.

On to `Cc1cc(OC2CCN(Cc3c(F)cccc3C#N)CC2)c2cc(C#N)ccc2n1` [Compound 45], for which the IC50 was above 30 µM.

Take `COc1ccc(F)c2c(OC3CCN(Cc4ccccc4C#N)CC3)cc(C)nc12` [Compound 35]: the 50% inhibitory concentration (IC50) is above 30 µM.

For the compound `Cc1cc(OC2CCN(Cc3ccc(C(=O)O)cc3)CC2)c2ccccc2n1` [Compound 66], the IC50 was above 30 µM.

Regarding `COc1cccc2c(OC3CCN(Cc4ccccc4C#N)CC3)cc(C)nc12` [Compound 91], the IC50 was above 30 µM.

For the compound `Cc1cc(OC2CCN(Cc3c(F)cccc3C#N)CC2)c2cc(Br)ccc2n1` [Compound 44], the IC50 was above 30 µM.

Regarding `Cc1cc(OC2CCN(Cc3c(F)cccc3F)CC2)c2cccc(F)c2n1` [Compound 77], the IC50 lay in the range of 10.1 to 20 µM.

Consider `Cc1cc(OC2CCN(Cc3ccccc3-c3nnn[nH]3)CC2)c2cccc(F)c2n1` [Compound 50, 4-[1-(2-(1H-tetrazol-5-yl-)benzyl)piperidin-4-yloxy]-8-fluoro2-methylquinoline], for which the IC50 was 0.1 to 10 µM.

With `Cc1cc(OC2CCN(Cc3ccccc3C#N)CC2)c2cc(F)ccc2n1` [Compound 30], the IC50 lay within 10.1 to 20 µM.

As to `Cc1cc(OC2CCN(Cc3ccccc3-c3nnn[nH]3)CC2)c2cc(Br)ccc2n1` [Compound 59], the IC50 is above 30 µM.

In the case of `Cc1cc(OC2CCN(C(C)C)CC2)c2cccc(F)c2n1` [Compound 39], the concentration for half-maximal inhibition (IC50) was above 30 µM.

In the case of `Cc1cc(OC2CCN(Cc3ccc4c(c3)OCO4)CC2)c2ccccc2n1` [Compound 86], the IC50 is 10.1 to 20 µM.

On to `Cc1cc(OC2CCN(Cc3ccccc3C#N)CC2)c2cc(OC3CCCCO3)ccc2n1` (stereo not drawn) [Compound 52], for which the half-inhibitory concentration (IC50) was above 30 µM.

As to `COC(=O)c1ccc(NC(=O)c2ccccc2CN2CCC(Oc3cc(C)nc4c(F)cccc34)CC2)cc1` [Compound 51], the concentration for half-maximal inhibition (IC50) lay within 10.1 to 20 µM.

As to `COC(=O)c1ccc(CN2CCC(Oc3cc(C)nc4ccccc34)CC2)cc1` [Compound 64], the half-inhibitory concentration (IC50) lay within 20.1 to 30 µM.

Consider `COc1ccc(F)c2c(OC3CCN(Cc4ccccc4)CC3)cc(C)nc12` [Compound 33], for which the 50% inhibitory concentration (IC50) is above 30 µM.

For the compound `Cc1cc(OC2CCN(Cc3ccccc3C#N)CC2)c2cc(Br)ccc2n1` [Compound 57], the 50% inhibitory concentration (IC50) is above 30 µM.

Take `Cc1cc(NC2CCN(Cc3ccccc3)CC2)c2ccccc2n1` [Compound 40]: the half-maximal inhibitory concentration (IC50) is above 30 µM.

Consider `Cc1cc(OC2CCN(Cc3ccccc3C#N)CC2)c2cc(C#N)ccc2n1` [Compound 60], for which the 50% inhibitory concentration (IC50) is above 30 µM.

As to `Cc1cc(OC2CCN(Cc3c(F)cccc3C#N)CC2)c2cccc(F)c2n1` [Compound 42], the IC50 was in the range of 0.1 to 10 µM.

As for `Cc1cc(OC2CCN(Cc3ccc(F)c(C#N)c3)CC2)c2ccccc2n1` [Compound 65], the IC50 was above 30 µM.

Consider `Cc1cc(OC2CCN(Cc3cccc(C(=O)O)c3)CC2)c2cc(O)ccc2n1` [Compound 92], for which the IC50 is above 30 µM.

On to `Cc1cc(OC2CCN(Cc3ccccc3C(=O)O)C3CCCCC23)c2cccc(F)c2n1` (stereo not drawn) [Compound 82], for which the half-inhibitory concentration (IC50) was above 30 µM.

Turning to `c1ccc(CN2CCC(Oc3ccnc4ccccc34)CC2)cc1` [Compound 68], the IC50 was 0.1 to 10 µM.

As to `COc1ccc(CN2CCC(Oc3cc(C)nc4ccc(Br)cc34)CC2)cc1` [Compound 48], the concentration for half-maximal inhibition (IC50) was above 30 µM.

Regarding `Cc1cc(OC2CCN(Cc3ccccc3C(=O)O)CC2)c2cc(F)ccc2n1` [Compound 31], the half-maximal inhibitory concentration (IC50) was 10.1 to 20 µM.

On to `COc1ccc(F)c2c(OC3CCN(Cc4ccccc4-c4nnn[nH]4)CC3)cc(C)nc12` [Compound 95], for which the IC50 is 0.1 to 10 µM.

Regarding `Cc1cc(OC2CCN(Cc3ccccc3-c3nnn[nH]3)CC2)c2cc(Cl)ccc2n1` [Compound 100], the half-inhibitory concentration (IC50) lay in the range of 0.1 to 10 µM.

As to `COc1ccc(CN2CCC(Oc3cc(C)nc4c(F)cccc34)CC2)c(F)c1` [Compound 47], the concentration for half-maximal inhibition (IC50) was 0.1 to 10 µM.

As to `Cc1cc(OC2CCN(Cc3ccc(O)c(O)c3)CC2)c2ccccc2n1` [Compound 88], the IC50 fell in the range of 0.1 to 10 µM.

On to `COc1cc(F)cc2c(OC3CCN(Cc4ccccc4)CC3)cc(C)nc12` [Compound 32], for which the half-maximal inhibitory concentration (IC50) lay in the range of 0.1 to 10 µM.

`COc1ccc2cc(CN3CCC(Oc4cc(C)nc5c(F)cccc45)CC3)ccc2c1` [Compound 87]: the half-inhibitory concentration (IC50) was in the range of 10.1 to 20 µM.

Turning to `COc1cc(F)cc2c(OC3CCN(Cc4ccccc4C#N)CC3)cc(C)nc12` [Compound 34], the IC50 was above 30 µM.

With `Cc1cc(OC2CCN(Cc3c(F)cccc3C(=O)O)CC2)c2cc(Br)ccc2n1` [Compound 43], the IC50 was above 30 µM.

Regarding `Cc1cc(OC2CCN(Cc3ccncc3F)CC2)c2cccc(F)c2n1` [Compound 73], the half-maximal inhibitory concentration (IC50) lay within 20.1 to 30 µM.

In the case of `Cc1cc(OC2CCN(Cc3ccc(O)cc3F)CC2)c2cccc(F)c2n1` [Compound 49], the half-inhibitory concentration (IC50) is 0.1 to 10 µM.

With `COc1ccc(CN2CCC(Oc3cc(C)nc4c(F)cccc34)CC2)cn1` [Compound 72], the half-inhibitory concentration (IC50) is above 30 µM.

In the case of `Cc1cc(OC2CCN(Cc3ccc4ccccc4c3)CC2)c2cccc(F)c2n1` [Compound 84], the IC50 is above 30 µM.

For the compound `COc1cccc(CN2CCC(Oc3cc(C)nc4c(F)cccc34)CC2)c1` [Compound 70], the concentration for half-maximal inhibition (IC50) was in the range of 0.1 to 10 µM.

Take `Cc1cc(OC2CCN(Cc3ccc(C(=O)O)cc3)CC2)c2cc(O)ccc2n1` [Compound 96]: the IC50 was above 30 µM.

As for `Cc1cc(OC2CCN(Cc3ccccc3C#N)CC2)c2ccccc2n1` [Compound 63], the IC50 was above 30 µM.

For `Cc1cc(OC2CCN(Cc3cccnc3CO)CC2)c2cccc(F)c2n1` [Compound 76], the IC50 is above 30 µM.

As to `Cc1cc(OC2CCN(Cc3ccccc3)CC2)c2ccc(F)cc2n1` [Compound 80], the half-maximal inhibitory concentration (IC50) is above 30 µM.

Regarding `Cc1cc(OC2CCN(Cc3ccccc3)CC2)c2cc(-c3nnn[nH]3)ccc2n1` [Compound 58], the IC50 was above 30 µM.

Take `Cc1cc(OC2CCN(Cc3ccccc3C(=O)Nc3ccc(C(=O)O)cc3)CC2)c2cccc(F)c2n1` [Compound 54]: the half-inhibitory concentration (IC50) was 0.1 to 10 µM.

As to `c1ccc(CN2CCC(Oc3c4ccccc4nc4ccccc34)CC2)cc1` [Compound 89], the half-inhibitory concentration (IC50) is above 30 µM.

With `COc1cc(F)cc2c(OC3CCN(Cc4ccccc4C(=O)O)CC3)cc(C)nc12` [Compound 36, 2-[4-(6-Fluoro-8-methoxy-2-methyl-quinolin-4-yloxy)-piperidin-1-ylmethyl]-benzoic acid], the IC50 was in the range of 0.1 to 10 µM.
